Three substances from US9023821B2, “Use of MicroRNA for treating diseases associated with a dysfunction of the cilia in multiciliated epithelial cells” (Centre National de la Recherche Scientifique, priority 2009, dated 2015) can be followed below.

Data set [1] concerns human airway epithelial cells (HAECs). Briefly: High-throughput sequencing (HTS) of miRNAs at four stages of differentiation of HAECs. The settings on record: for Modulation (ratio of the level of intensity of expression in log2 in two stages of differentiation) measured by high-throughput sequencing, D7 − D0 / Modulation (ratio of the level of intensity of expression in log2 in two stages of differentiation) measured by high-throughput sequencing, FC − D7 / Modulation (ratio of the level of intensity of expression in log2 in two stages of differentiation) measured by high-throughput sequencing, WD − D0 / Modulation (ratio of the level of intensity of expression in log2 in two stages of differentiation) measured by high-throughput sequencing, WD − FC / Level of intensity of expression in log2 measured by high-throughput sequencing, D0 / Level of intensity of expression in log2 measured by high-throughput sequencing, D7 / Level of intensity of expression in log2 measured by high-throughput sequencing, FC / Level of intensity of expression in log2 measured by high-throughput sequencing, WD: Table VI; for Level of intensity of expression in log2 At the differentiated stage (WD) measured in HTS: healthy human airway epithelial tissue; for Level of intensity of expression in log2 measured by high-throughput sequencing, D0: stage D0; for Level of intensity of expression in log2 measured by high-throughput sequencing, D7: stage D7; for Level of intensity of expression in log2 measured by high-throughput sequencing, FC: stage FC; for Level of intensity of expression in log2 At the differentiated stage (WD) measured in HTS / Level of intensity of expression in log2 measured by high-throughput sequencing, WD: stage WD. In outline: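 Total RNA including small RNAs was taken from air-liquid interface cultures at ALI-D0, ALI-D7, ALI-FC (first cilia, ~14 days) and ALI-WD (~21 days). SOLiD small-RNA libraries were sequenced, and 5p/3p reads were normalized to 10^6 sequences and expressed as percentage abundance.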

Data set [2] shares this test system. Briefly: Agilent miRNA chips, miRNA expression at four stages of differentiation of HAECs. The settings on record: for Modulation (ratio of the level of intensity of expression in log2 in two stages of differentiation) measured with the Agilent chips, D7 − D0 / Modulation (ratio of the level of intensity of expression in log2 in two stages of differentiation) measured with the Agilent chips, FC − D7 / Modulation (ratio of the level of intensity of expression in log2 in two stages of differentiation) measured with the Agilent chips, WD − D0 / Modulation (ratio of the level of intensity of expression in log2 in two stages of differentiation) measured with the Agilent chips, WD − FC / Level of intensity of expression in log2 measured with the Agilent chips, D0 / Level of intensity of expression in log2 measured with the Agilent chips, D7 / Level of intensity of expression in log2 measured with the Agilent chips, FC / Level of intensity of expression in log2 measured with the Agilent chips, WD: Table VI; for Level of intensity of expression in log2 measured with the Agilent chips, D0: stage D0; for Level of intensity of expression in log2 measured with the Agilent chips, D7: stage D7; for Level of intensity of expression in log2 measured with the Agilent chips, FC: stage FC; for Level of intensity of expression in log2 measured with the Agilent chips, WD: stage WD; for Modulation (ratio of the level of intensity of expression in log2 at two stages of differentiation), FC − D7 / Modulation (ratio of the level of intensity of expression in log2 at two stages of differentiation), WD − FC: Agilent miRNA chips, Table V. The procedure, abridged: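 Arrays probing 866 human and 89 human viral miRNAs were used in parallel with sequencing. The same patients' RNA was labelled and hybridized following the manufacturer's protocol.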

The subject of data set [3] is basal cells and pyramidal cells of the airway epithelium. Briefly: miRNA expression in sorted basal cells versus pyramidal cells (ciliated + secretory), HTS and Agilent chips. The conditions noted are these: for Modulation of expression of the miRNAs in pyramidal cells (323(−)) relative to basal cells 323(+): HTS and Agilent chips; for Intensity of the level of expression in log2 in pyramidal cells (323(−)): pyramidal cells (ciliated + secretory). Details: species or system human. In outline: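 miRNA repertoires measured by high-throughput sequencing or Agilent arrays on total RNA from sorted airway epithelial populations of 3 donors. Sorting used CD151-PE and anti-tissue factor-FITC: double-positive basal versus double-negative ciliated/secretory cells, with DAPI-stained and aggregated cells excluded.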

As for “hsa-miR-205: human miRNA, SEQ ID No. 20 (UCCUUCAUUCCACCGGAGUCUG; expressed or natural sequence; listed as Homo sapiens)”, in data set [1], the “Modulation (ratio of the level of intensity of expression in log2 in two stages of differentiation) measured by high-throughput sequencing, D7 − D0” value is 0.62 log2; the “Modulation (ratio of the level of intensity of expression in log2 in two stages of differentiation) measured by high-throughput sequencing, FC − D7” value is −1.12 log2; the “Modulation (ratio of the level of intensity of expression in log2 in two stages of differentiation) measured by high-throughput sequencing, WD − D0” value was −0.06 log2; the “Modulation (ratio of the level of intensity of expression in log2 in two stages of differentiation) measured by high-throughput sequencing, WD − FC” value was 0.44 log2. Besides, in data set [1], the “Level of intensity of expression in log2 At the differentiated stage (WD) measured in HTS” value came out at 15.24 log2; the “Level of intensity of expression in log2 measured by high-throughput sequencing, D0” value stood at 14.61 log2; the “Level of intensity of expression in log2 measured by high-throughput sequencing, D7” value was 15.23 log2; the “Level of intensity of expression in log2 measured by high-throughput sequencing, FC” value is on record as 14.11 log2. For the same substance, in data set [1], the “Level of intensity of expression in log2 measured by high-throughput sequencing, WD” value was 14.55 log2. Further, in data set [1] (HTS), the “Modulation (ratio of the level of intensity of expression in log2 in two stages of differentiation), D7 − D0” value is given as 0.62 log2; the “Modulation (ratio of the level of intensity of expression in log2 in two stages of differentiation), FC − D7” value is given as −1.12 log2; the “Modulation (ratio of the level of intensity of expression in log2 in two stages of differentiation), WD − FC” value came to 0.44 log2. Further, the “Abundance (%), D0” value in data set [1] (HTS, ALI-D0) turned out to be 5.48%. Moreover, the “Abundance (%), D7” value in data set [1] (HTS, ALI-D7) was 8.43%. The “Abundance (%), FC” value in data set [1] (HTS, ALI-FC) amounted to 3.76%. Moreover, the “Abundance (%), WD” value in data set [1] (HTS, ALI-WD) is recorded as 3.87%. In data set [2], the “Modulation (ratio of the level of intensity of expression in log2 in two stages of differentiation) measured with the Agilent chips, D7 − D0” value is recorded as 1.00 log2; the “Modulation (ratio of the level of intensity of expression in log2 in two stages of differentiation) measured with the Agilent chips, FC − D7” value was −0.72 log2; the “Modulation (ratio of the level of intensity of expression in log2 in two stages of differentiation) measured with the Agilent chips, WD − D0” value is on record as −0.11 log2; the “Modulation (ratio of the level of intensity of expression in log2 in two stages of differentiation) measured with the Agilent chips, WD − FC” value is on record as −0.39 log2. In data set [2], the “Level of intensity of expression in log2 measured with the Agilent chips, D0” value was 13.18 log2; the “Level of intensity of expression in log2 measured with the Agilent chips, D7” value was 14.18 log2; the “Level of intensity of expression in log2 measured with the Agilent chips, FC” value stood at 13.46 log2; the “Level of intensity of expression in log2 measured with the Agilent chips, WD” value is 13.07 log2. In addition, in data set [3], the “Modulation of expression of the miRNAs in pyramidal cells (323(−)) relative to basal cells 323(+)” value is −7.00, the “Intensity of the level of expression in log2 in basal cells (323(+))” value (“Intensity … in log2 in basal cells (323(+))” for short) is given as 12.44 log2 and the “Intensity of the level of expression in log2 in pyramidal cells (323(−))” value (from here on “Intensity … in log2 in pyramidal cells (323(−))”) amounted to 5.44 log2. Also, the “cell type in which the miRNA is specifically expressed” value in data set [3] (sorted ciliated/pyramidal versus basal cells) is “more specific to the basal cells”.
Turning to “hsa-miR-148a: human miRNA, SEQ ID No. 7 (UCAGUGCACUACAGAACUUUGU; expressed or natural sequence; listed as Homo sapiens)”, in data set [1], the “Modulation (ratio of the level of intensity of expression in log2 in two stages of differentiation) measured by high-throughput sequencing, D7 − D0” value stood at 1.31 log2; the “Modulation (ratio of the level of intensity of expression in log2 in two stages of differentiation) measured by high-throughput sequencing, FC − D7” value is −0.28 log2; the “Modulation (ratio of the level of intensity of expression in log2 in two stages of differentiation) measured by high-throughput sequencing, WD − D0” value came out at 1.93 log2; the “Modulation (ratio of the level of intensity of expression in log2 in two stages of differentiation) measured by high-throughput sequencing, WD − FC” value came out at 0.91 log2. In data set [1], the “Level of intensity of expression in log2 At the differentiated stage (WD) measured in HTS” value was 8.97 log2; the “Level of intensity of expression in log2 measured by high-throughput sequencing, D0” value was 7.04 log2; the “Level of intensity of expression in log2 measured by high-throughput sequencing, D7” value is 8.34 log2; the “Level of intensity of expression in log2 measured by high-throughput sequencing, FC” value is given as 8.06 log2. In data set [1], the “Level of intensity of expression in log2 measured by high-throughput sequencing, WD” value amounted to 8.97 log2. In data set [2], the “Modulation (ratio of the level of intensity of expression in log2 in two stages of differentiation) measured with the Agilent chips, D7 − D0” value is given as 2.06 log2; the “Modulation (ratio of the level of intensity of expression in log2 at two stages of differentiation), FC − D7” value is −0.50 log2; the “Modulation (ratio of the level of intensity of expression in log2 in two stages of differentiation) measured with the Agilent chips, FC − D7” value is on record as −0.50 log2; the “Modulation (ratio of the level of intensity of expression in log2 in two stages of differentiation) measured with the Agilent chips, WD − D0” value turned out to be 1.60 log2. For the same substance, in data set [2], the “Modulation (ratio of the level of intensity of expression in log2 at two stages of differentiation), WD − FC” value came out at 0.04 log2; the “Modulation (ratio of the level of intensity of expression in log2 in two stages of differentiation) measured with the Agilent chips, WD − FC” value is recorded as 0.04 log2; the “Level of intensity of expression in log2 measured with the Agilent chips, D0” value came to 7.35 log2; the “Level of intensity of expression in log2 measured with the Agilent chips, D7” value is 9.41 log2. In addition, in data set [2], the “Level of intensity of expression in log2 measured with the Agilent chips, FC” value is given as 8.91 log2 and the “Level of intensity of expression in log2 measured with the Agilent chips, WD” value came to 8.95 log2. Besides, in data set [3], the “Modulation of expression of the miRNAs in pyramidal cells (323(−)) relative to basal cells 323(+)” value is reported as −1.76, the “Intensity … in log2 in basal cells (323(+))” value came out at 7.14 log2 and the “Intensity … in log2 in pyramidal cells (323(−))” value is on record as 5.39 log2.
As for “hsa-miR-365: human miRNA, SEQ ID No. 41 (UAAUGCCCCUAAAAAUCCUUAU; expressed or natural sequence; listed as Homo sapiens)”, in data set [1], the “Modulation (ratio of the level of intensity of expression in log2 in two stages of differentiation) measured by high-throughput sequencing, D7 − D0” value was −0.39 log2; the “Modulation (ratio of the level of intensity of expression in log2 in two stages of differentiation) measured by high-throughput sequencing, FC − D7” value turned out to be 0.00 log2; the “Modulation (ratio of the level of intensity of expression in log2 in two stages of differentiation) measured by high-throughput sequencing, WD − D0” value is recorded as −0.39 log2; the “Modulation (ratio of the level of intensity of expression in log2 in two stages of differentiation) measured by high-throughput sequencing, WD − FC” value was determined as 0.00 log2. In data set [1], the “Level of intensity of expression in log2 At the differentiated stage (WD) measured in HTS” value was found to be 2.78 log2; the “Level of intensity of expression in log2 measured by high-throughput sequencing, D0” value is recorded as 0.41 log2; the “Level of intensity of expression in log2 measured by high-throughput sequencing, D7” value came to 0.01 log2; the “Level of intensity of expression in log2 measured by high-throughput sequencing, FC” value came out at 0.01 log2. The “Level of intensity of expression in log2 measured by high-throughput sequencing, WD” value in data set [1] was determined as 0.01 log2. Further, in data set [2], the “Modulation (ratio of the level of intensity of expression in log2 in two stages of differentiation) measured with the Agilent chips, D7 − D0” value was −0.02 log2; the “Modulation (ratio of the level of intensity of expression in log2 at two stages of differentiation), FC − D7” value is recorded as −1.21 log2; the “Modulation (ratio of the level of intensity of expression in log2 in two stages of differentiation) measured with the Agilent chips, FC − D7” value is −1.21 log2; the “Modulation (ratio of the level of intensity of expression in log2 in two stages of differentiation) measured with the Agilent chips, WD − D0” value was −1.18 log2. In data set [2], the “Modulation (ratio of the level of intensity of expression in log2 at two stages of differentiation), WD − FC” value was 0.05 log2; the “Modulation (ratio of the level of intensity of expression in log2 in two stages of differentiation) measured with the Agilent chips, WD − FC” value came to 0.05 log2; the “Level of intensity of expression in log2 measured with the Agilent chips, D0” value turned out to be 8.44 log2; the “Level of intensity of expression in log2 measured with the Agilent chips, D7” value was 8.41 log2. Further, in data set [2], the “Level of intensity of expression in log2 measured with the Agilent chips, FC” value turned out to be 7.21 log2 and the “Level of intensity of expression in log2 measured with the Agilent chips, WD” value amounted to 7.25 log2. In data set [3], the “Modulation of expression of the miRNAs in pyramidal cells (323(−)) relative to basal cells 323(+)” value is on record as −0.99, the “Intensity … in log2 in basal cells (323(+))” value turned out to be 4.83 log2 and the “Intensity … in log2 in pyramidal cells (323(−))” value is reported as 3.84 log2.
